Source: PubChem BioAssay (NCI)
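Five concentrations, 48 hours, 96-well plates. GI50 marks 50% less growth. TGI is the concentration that stops growth completely.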

What was measured:
Assay in all cases: inhibition of tumour cell growth, NCI panel, 48 h
SR leukemia = test system: SR leukemia
CAKI-1 renal = test system: CAKI-1 renal
SK-MEL-2 melanoma = test system: SK-MEL-2 melanoma
T-47D breast = test system: T-47D breast
SW-620 colon = test system: SW-620 colon
PC-3 prostate = test system: PC-3 prostate
NCI/ADR-RES ovarian = test system: NCI/ADR-RES ovarian
UO-31 renal = test system: UO-31 renal
SF-268 CNS = test system: SF-268 CNS
RXF 393 renal = test system: RXF 393 renal

| SMILES | GI50 (SR leukemia) | GI50 (CAKI-1 renal) | TGI (CAKI-1 renal) | TGI (SK-MEL-2 melanoma) | GI50 (T-47D breast) | TGI (T-47D breast) | GI50 (SW-620 colon) | TGI (SW-620 colon) | GI50 (PC-3 prostate) | TGI (PC-3 prostate) | GI50 (NCI/ADR-RES ovarian) | TGI (NCI/ADR-RES ovarian) | GI50 (UO-31 renal) | TGI (UO-31 renal) | GI50 (SF-268 CNS) | TGI (SF-268 CNS) | GI50 (RXF 393 renal) | TGI (RXF 393 renal) | TGI (SR leukemia) | GI50 (SK-MEL-2 melanoma) |
| --- | --- | --- | --- | --- | --- | --- | --- | --- | --- | --- | --- | --- | --- | --- | --- | --- | --- | --- | --- | --- |
| CCN1C(=O)N(CC)C2C1NN=c1s/c(=C\c3cc4ccccc4[nH]3)c(=O)n12 (stereo not given) | < 0.01 µM | < 0.0169 µM | 11.6 µM | 33.9 µM | 0.0348 µM | 5.94 µM | 0.0277 µM | > 100 µM | < 0.015 µM | > 100 µM | 0.0213 µM | 2.3 µM | 0.0523 µM | 10.4 µM | < 0.0229 µM | 20.4 µM | < 0.0187 µM | 11.6 µM | – | – |
| CN(C)CC1CCCCCC(CN(C)C)C1=O (stereo not given) | 2.1 µM | 1.49 µM | 3.12 µM | 13.4 µM | 2.12 µM | 12.5 µM | 1.13 µM | 2.72 µM | 8.71 µM | 24.2 µM | 3.39 µM | 14.3 µM | 1.77 µM | 4.5 µM | 7.72 µM | 23.4 µM | 1.58 µM | 3.35 µM | 7.14 µM | 3.82 µM |
| C=C1CCC2C3(C)COC(c4ccccc4Br)OC3CCC2(C)C1C/C=C1/C(=O)OCC1OC(C)=O (stereo not given) | 0.215 µM | 2.4 µM | 6.46 µM | 3.4 µM | 1.08 µM | 2.77 µM | 0.402 µM | 1.3 µM | 1.63 µM | 3.76 µM | 1.18 µM | 3.12 µM | 1.34 µM | 2.72 µM | 1.65 µM | 3.01 µM | 1.54 µM | 2.96 µM | 0.706 µM | 1.72 µM |
| O=C(OCCBr)c1ccc(Cl)c([N+](=O)[O-])c1 | 7.9 µM | 7.78 µM | 23.1 µM | 35.1 µM | 2.29 µM | 5.49 µM | 14.6 µM | 30.2 µM | 5.23 µM | 12.8 µM | 21.4 µM | 53.1 µM | 2.72 µM | 7.85 µM | 5.44 µM | 10.3 µM | 15.5 µM | 29.9 µM | 31.5 µM | 16.3 µM |
| COc1cc(C2C3=C(COC3=O)Nc3cc4c(cc32)CCC4)cc2c1OCO2 (stereo not given) | 0.0453 µM | 0.157 µM | 38.7 µM | 3.47 µM | 12 µM | 59.8 µM | 0.0413 µM | 13.2 µM | 0.049 µM | 18.2 µM | 0.0345 µM | 0.881 µM | 1.05 µM | 26.5 µM | 0.0558 µM | 6.58 µM | – | – | > 34.5 µM | 0.0989 µM |
| COc1cc(C(=O)/C=C/c2cccnc2Nc2ccccc2)cc(OC)c1OC | 0.346 µM | – | – | 3.4 µM | 1.43 µM | 3.07 µM | 0.422 µM | 1.66 µM | 1.1 µM | 3.18 µM | 1.03 µM | 4.56 µM | 1.19 µM | 2.57 µM | 1.55 µM | 3.09 µM | 1.12 µM | 2.37 µM | > 100 µM | 1.66 µM |
| Nc1ccc(-c2ccc(N)cc2I)c(I)c1 | 5.1 µM | 14.5 µM | 42.9 µM | 37.4 µM | 18.5 µM | 59.1 µM | 19.4 µM | 81.7 µM | 16.3 µM | 47.6 µM | 19 µM | 70 µM | 10.6 µM | 26 µM | 20 µM | > 100 µM | 10.9 µM | 28 µM | 39.8 µM | 15.9 µM |
| COc1cc(C2CC(c3ccc(N(C)C)cc3)=NN2C(C)=O)cc(OC)c1OC (stereo not given) | 2.39 µM | 0.801 µM | > 100 µM | > 100 µM | > 24.7 µM | > 100 µM | 0.928 µM | > 100 µM | 1.42 µM | > 100 µM | 3.78 µM | > 100 µM | 3.59 µM | > 100 µM | 3.69 µM | > 100 µM | 2.73 µM | > 22.9 µM | > 100 µM | 12.9 µM |
| Cn1ccnc1C(=O)/C=C/c1ccc(CC(=O)Nc2ccc(C(F)(F)F)cc2)cc1 | 0.718 µM | 3.54 µM | 9.53 µM | 11.3 µM | 5.95 µM | > 16.7 µM | 4.17 µM | > 16.7 µM | 1.01 µM | 4.6 µM | 4.32 µM | 10.9 µM | 2.51 µM | 4.76 µM | 3.03 µM | 7.88 µM | 2.72 µM | 5.49 µM | 9.94 µM | 4.95 µM |
| c1ccc(CSc2nnc3c4ccccc4c4ccccc4c3n2)cc1 | – | – | > 100 µM | > 79.7 µM | – | > 100 µM | – | > 100 µM | – | > 100 µM | – | > 100 µM | – | > 100 µM | – | 67.9 µM | – | > 79.5 µM | > 100 µM | – |
| COC(=O)C(F)C(Br)C(=O)OC (stereo not given) | – | – | 5.17 µM | 32.6 µM | – | 6.63 µM | – | 4.56 µM | – | 10.1 µM | – | 8.93 µM | – | 3.52 µM | – | 24.4 µM | – | 6.95 µM | 3.27 µM | – |
| COCCNc1cc(NC(=O)N2CCCc3cc(CN4CCN(C)CC4=O)c(C=O)nc32)ncc1C#N | > 50 µM | > 50 µM | > 50 µM | > 50 µM | 46.5 µM | > 50 µM | > 50 µM | > 50 µM | > 50 µM | > 50 µM | > 50 µM | > 50 µM | > 50 µM | > 50 µM | > 50 µM | > 50 µM | – | – | > 50 µM | 36.6 µM |
| COc1ccc(-c2nn(-c3cccc(Cl)c3)cc2-c2cc(-c3ccccc3)nc(N)n2)cc1 | 2.03 µM | 1.77 µM | 10.7 µM | 10.7 µM | 4.49 µM | 17.1 µM | – | – | 1.6 µM | 6.56 µM | 8.72 µM | 31 µM | 10 µM | 26.5 µM | 3.76 µM | 18.9 µM | 2.64 µM | 8.47 µM | 5.21 µM | 3.23 µM |
| Cc1cn2c(/C=N/Nc3ccccn3)c(-c3ccc(Cl)c([N+](=O)[O-])c3)nc2s1 | 1.86 µM | 39 µM | > 50 µM | > 50 µM | > 50 µM | > 50 µM | 44.1 µM | > 50 µM | 20.8 µM | > 50 µM | 11.3 µM | 30.9 µM | 13.1 µM | > 50 µM | 11.6 µM | 31.7 µM | – | – | 10.6 µM | 21.2 µM |
| FC(F)(F)c1ccc(-c2cnc(Cl)nc2NCc2cc(C(F)(F)F)cc(C(F)(F)F)c2)cc1 | 3.67 µM | 2.1 µM | 7.52 µM | 5.28 µM | 3.14 µM | > 100 µM | 3.14 µM | > 100 µM | – | – | 2.98 µM | > 100 µM | 2.51 µM | > 100 µM | 3.86 µM | > 100 µM | 3.15 µM | > 100 µM | > 100 µM | 2.35 µM |
| CCN(CC)c1ccc(C(=N)c2ccc(N(C)C)cc2)cc1 | 0.301 µM | 0.246 µM | 7.73 µM | – | 1.27 µM | 9.42 µM | 0.174 µM | 5.63 µM | 0.284 µM | 7.05 µM | 0.187 µM | 2.94 µM | 1.45 µM | 7.73 µM | 0.22 µM | 5.42 µM | 1.18 µM | 4.02 µM | 2.8 µM | – |
| CCCOc1nc(SCCC)nc2c1cnn2-c1ccccc1 | 32.2 µM | 68.2 µM | > 100 µM | – | > 100 µM | > 100 µM | > 100 µM | > 100 µM | 30.7 µM | > 100 µM | > 100 µM | > 100 µM | > 100 µM | > 100 µM | > 100 µM | > 100 µM | 78.9 µM | > 100 µM | > 100 µM | – |
| O=C(COc1cccc(/C=C2\COc3ccc(Cl)cc3C2=O)c1)c1ccc(Cl)cc1 | 1.71 µM | 12.1 µM | 24.5 µM | 21.1 µM | 11.4 µM | 26.1 µM | 3.3 µM | 13 µM | 12.4 µM | 28.9 µM | 20.5 µM | 69.6 µM | 5.13 µM | 19.4 µM | 13.9 µM | 26.9 µM | – | – | 5.11 µM | 7.4 µM |
| Nc1cc(N)c2nc(-c3ccccc3)c(NCc3ccc(F)cc3)nc2c1 | 4.11 µM | 15.3 µM | 37.1 µM | > 100 µM | – | – | 2.21 µM | 9.52 µM | 3.5 µM | 15.6 µM | 2.46 µM | 5.76 µM | 3.81 µM | > 100 µM | 2.81 µM | 7.54 µM | 12.3 µM | 27.2 µM | > 100 µM | 5.21 µM |
| CC(=O)O[C@H]1CC[C@@]2(C)[C@@H](CC[C@@H]3[C@@H]2CC[C@]2(C)C=C(C=O)C[C@@H]32)C1 | 3.19 µM | 29.8 µM | 98.1 µM | 23.1 µM | 3.74 µM | 15.5 µM | 3.42 µM | 10.7 µM | 6.53 µM | 27.5 µM | 5.35 µM | > 100 µM | 18.8 µM | 35.3 µM | 3.3 µM | 11.2 µM | – | – | 9.94 µM | 7.53 µM |
| Clc1nc(Cl)c(-c2ccccc2)c(Cl)n1 | – | – | 3.33 µM | – | – | 9.28 µM | – | 5.34 µM | – | 16.5 µM | – | 11 µM | – | 9.08 µM | – | > 29.9 µM | – | 5.58 µM | 6.85 µM | – |
